Data set [1] deals with Respiratory syncytial virus. As to the kind of experiment: Antiviral activity against Respiratory syncytial virus infected African green monkey Vero 76 cells assessed as reduction in plaque number treated after viral infection measured after 5 days by plaque reduction assay. The format is functional, organism-based. Conditions: human respiratory syncytial virus, 120 h.
Another data set has as its system Poliovirus 1. As to the kind of experiment: Antiviral activity against Human poliovirus 1 strain Sabin infected African green monkey Vero 76 cells assessed as reduction in plaque number treated after viral infection measured after 2 days by plaque reduction assay. The format is functional, organism-based. Conditions: Enterovirus C, 48 h. In general terms: Plaque reduction counts the foci of infection that form in a cell layer.

Data set [2] concerns Vesicular stomatitis virus. As to the kind of experiment: Antiviral activity against Vesicular stomatitis virus infected African green monkey Vero 76 cells assessed as reduction in plaque number treated after viral infection measured after 2 days by plaque reduction assay. Conditions: 48 h. The class given is functional, organism-based.
The next data set concerns Coxsackievirus B2. As to the kind of experiment: Antiviral activity against Human coxsackievirus B2 infected in African green monkey Vero 76 cells assessed as reduction in plaque number treated after viral infection measured after 3 days by plaque reduction assay. The class given is functional, organism-based. To be noted: Enterovirus B, 72 h.
The test system of a further data set is Vaccinia virus. As to the kind of experiment: Antiviral activity against Vaccinia virus infected African green monkey Vero 76 cells assessed as reduction in plaque number treated after viral infection measured after 3 days by plaque reduction assay. The format is functional, organism-based. Conditions: Orthopoxvirus vaccinia, 72 h.
In data set [3] the test system is Bovine viral diarrhea virus 1. As to the kind of experiment: Antiviral activity against Bovine viral diarrhea virus 1 infected bovine MDBK cells assessed as protection against virus-induced cytopathogenicity treated 1 hr after viral infection measured after 3-4 days by MTT method. The format is functional, organism-based. Conditions: Bovine viral diarrhea virus isolates and strains. On the technique in general: Damage to the host cells serves as the signal in cytopathic effect assays.

The test system of data set [4] is Human immunodeficiency virus 1. Nature of the data set: Antiviral activity against Human immunodeficiency virus 1 infected human MT4 cells assessed as protection against virus-induced cytopathogenicity treated before viral infection measured after 4 days by MTT assay. The class given is functional, organism-based. To be noted: Human immunodeficiency virus 1, MT4, 96 h.

Data set [5] is described as follows: Cytotoxicity against Chlorocebus aethiops (African green monkey) Vero 76 cells assessed as inhibition of cell viability after 48 to 120 hr by MTT assay. To be noted: chlorocebus sabaeus. The format is cell-based. On the technique in general: Tetrazolium assays rely on reduction of a dye to a coloured formazan, in cell work by metabolically active cells.
A short description of data set [6]: Cytotoxicity against Mesocricetus auratus (Syrian golden hamster) BHK21cells assessed as inhibition of cell viability after 48 to 120 hr by MTT assay. The class given is cell-based. To be noted: BHK-21 cells.
Data set [7] can be described thus: Cytotoxicity against Bos taurus (bovine) MDBK cells assessed as inhibition of cell viability after 48 to 120 hr by MTT assay. The class given is cell-based. Conditions: cattle.
Data set [8] in a line: Cytotoxicity against Homo sapiens (human) MT4 cells assessed as inhibition of cell vaibility after 96 hr by MTT assay. The class given is cell-based.
A further data set deals with Human alphaherpesvirus 1. As to the kind of experiment: Antiviral activity against Human herpesvirus 1 infected African green monkey Vero 76 cells assessed as reduction in plaque number treated after viral infection measured after 3 days by plaque reduction assay. Conditions: Human alphaherpesvirus 1, Vero, 72 h. The format is functional, organism-based.
For data set [9], the system named is Mammalian orthoreovirus 1. As to the kind of experiment: Antiviral activity against Mammalian orthoreovirus 1 infected Syrian hamster BHK-21 cells assessed as protection against virus-induced cytopathogenicity treated 1 hr after viral infection measured after 3-4 days by MTT method. The format is functional, organism-based. Conditions: Mammalian orthoreovirus 1, BHK-21.

The subject of another data set is Yellow fever virus. As to the kind of experiment: Antiviral activity against Yellow fever virus infected Syrian hamster BHK-21 cells assessed as protection against virus-induced cytopathogenicity treated 1 hr after viral infection measured after 3-4 days by MTT method. The format is functional, organism-based.

As for `Oc1ccc(-c2nnc3nnc4c5ccccc5[nH]c4n23)cc1`, the 50% effective concentration (EC50) (in data set [1]; with Poliovirus 1; in data set [2]; in the data set with Coxsackievirus B2; in the data set with Vaccinia virus; in [3]) was greater than 100 µM in each case. In addition, the EC50 (in data set [4]; with Human alphaherpesvirus 1; in data set [9]; in the data set on Yellow fever virus) was greater than 100 µM in each case. For the same compound, the half-maximal cytotoxic concentration (CC50) in data set [5], in data set [6] and in data set [7] was greater than 100 µM throughout. For the same compound, the CC50 (commonly the concentration that lowers cell viability or growth by half) at 96 h in data set [8] is greater than 100 µM.
`O=[N+]([O-])c1ccc(-c2nnc3nnc4c5ccccc5[nH]c4n23)cc1`: the EC50 (in [1]; in the data set with Poliovirus 1; in [2]; in the data set on Coxsackievirus B2; in the data set on Vaccinia virus; in data set [3]) was greater than 100 µM throughout. In addition, the half-maximal effective concentration (EC50) (in data set [4]; in the data set on Human alphaherpesvirus 1; in [9]; in the data set on Yellow fever virus) was greater than 100 µM each time. Also, the half-maximal cytotoxic concentration (CC50) in [5], in data set [6] and in data set [7] was greater than 100 µM each time. Further, the half-maximal cytotoxic concentration (CC50) at 96 h in data set [8] was greater than 100 µM.
With `c1ccc(-c2nnc3nnc4c5ccccc5[nH]c4n23)cc1`, the EC50 (in data set [1]; with Poliovirus 1; in data set [2]; in the data set with Coxsackievirus B2; with Vaccinia virus; in [3]) was greater than 100 µM each time. The EC50 (in data set [4]; in the data set on Human alphaherpesvirus 1; in [9]; in the data set on Yellow fever virus) was greater than 100 µM throughout. Besides, the cytotoxic concentration (CC50) in data set [5], in data set [6] and in data set [7] was greater than 100 µM in each case. In addition, in data set [8], the CC50 at 96 h was greater than 100 µM.
`O=[N+]([O-])c1ccccc1-c1nnc2nnc3c4ccccc4[nH]c3n12`: the EC50 – broadly, the concentration that produces a half-maximal response – in data set [1] is greater than 100 µM; in the data set on Poliovirus 1, greater than 100 µM; in data set [2] it was greater than 100 µM; in the data set on Coxsackievirus B2 it was 100 µM; in the data set with Vaccinia virus, greater than 100 µM; in data set [3], greater than 100 µM. Moreover, the half-maximal effective concentration (EC50) (in data set [4]; in the data set on Human alphaherpesvirus 1; in data set [9]; in the data set on Yellow fever virus) was greater than 100 µM in each case. Also, the 50% cytotoxic concentration (CC50) in [5], in [6] and in data set [7] was greater than 100 µM each time. Also, the CC50 at 96 h in data set [8] is greater than 100 µM.
Regarding `c1ccc(Oc2cccc(-c3nnc4nnc5c6ccccc6[nH]c5n34)c2)cc1`, the EC50 in data set [1] was greater than 80 µM; in the data set on Poliovirus 1, greater than 80 µM; in [2] it was greater than 80 µM; in the data set with Coxsackievirus B2 it was greater than 80 µM; in the data set with Vaccinia virus, greater than 80 µM; in data set [3], greater than 100 µM. The 50% effective concentration (EC50) was greater than 100 µM in data set [4], greater than 80 µM in the data set on Human alphaherpesvirus 1, greater than 100 µM in data set [9] and greater than 100 µM with Yellow fever virus. In addition, the CC50 in [5] was 80 µM; in data set [6], 100 µM; in data set [7], greater than 100 µM. In [8], the CC50 at 96 h is greater than 100 µM.
In the case of `COc1ccc(OC)c(-c2nnc3nnc4c5ccccc5[nH]c4n23)c1`, the EC50 was greater than 15 µM in data set [1]; greater than 15 µM with Poliovirus 1; greater than 15 µM in [2]; greater than 15 µM with Coxsackievirus B2; greater than 15 µM in the data set on Vaccinia virus; greater than 12 µM in data set [3]. Further, the EC50 is greater than 4 µM in data set [4], greater than 15 µM with Human alphaherpesvirus 1, greater than 30 µM in [9] and greater than 30 µM with Yellow fever virus. In addition, the figures for the CC50 in [5], in data set [6] and in data set [7] were 15 µM, 30 µM and 12 µM, respectively. The CC50 at 96 h in [8] was 4 µM.
As to `COc1cccc(-c2nnc3nnc4c5ccccc5[nH]c4n23)c1`, the EC50 in data set [1] was greater than 65 µM; in the data set with Poliovirus 1, greater than 65 µM; in [2], greater than 65 µM; in the data set on Coxsackievirus B2, greater than 65 µM; with Vaccinia virus, greater than 65 µM; in data set [3], greater than 64 µM. The EC50 in data set [4] was greater than 47 µM; in the data set on Human alphaherpesvirus 1, greater than 65 µM; in data set [9], greater than 100 µM; with Yellow fever virus, greater than 100 µM. For the same compound, the CC50 in [5] is 65 µM; in data set [6] it was greater than 100 µM; in data set [7], 64 µM. Further, the CC50 at 96 h in data set [8] amounted to 47 µM.
`COc1ccccc1-c1nnc2nnc3c4ccccc4[nH]c3n12`: the EC50 was greater than 20 µM in data set [1]; greater than 20 µM in the data set on Poliovirus 1; greater than 20 µM in [2]; greater than 20 µM in the data set on Coxsackievirus B2; greater than 20 µM with Vaccinia virus; greater than 17 µM in [3]. Moreover, the concentration giving a half-maximal response (EC50) was greater than 5 µM in [4], greater than 20 µM with Human alphaherpesvirus 1, greater than 23 µM in data set [9] and greater than 23 µM in the data set on Yellow fever virus. Besides, the CC50 in data set [5] came out at 20 µM; in data set [6], 23 µM; in data set [7], 17 µM. Also, the 50% cytotoxic concentration (CC50) at 96 h in data set [8] is 5 µM.
In the case of `Oc1ccccc1-c1nnc2nnc3c4ccccc4[nH]c3n12`, the EC50 in [1] was greater than 70 µM; in the data set on Poliovirus 1 it was greater than 70 µM; in data set [2], greater than 70 µM; with Coxsackievirus B2 it was greater than 70 µM; with Vaccinia virus, greater than 70 µM; in data set [3], greater than 100 µM. The EC50 is greater than 100 µM in data set [4], greater than 70 µM with Human alphaherpesvirus 1, greater than 100 µM in data set [9] and greater than 100 µM with Yellow fever virus. In addition, the CC50 in [5] is 70 µM; in data set [6], greater than 100 µM; in [7] it was greater than 100 µM. Further, in data set [8], the CC50 at 96 h is greater than 100 µM.
On to `Oc1cccc(-c2nnc3nnc4c5ccccc5[nH]c4n23)c1`, for which the 50% effective concentration (EC50) (in [1]; in the data set on Poliovirus 1; in [2]; in the data set with Coxsackievirus B2; in the data set with Vaccinia virus; in data set [3]) was greater than 100 µM in each case. In addition, the EC50 (in data set [4]; with Human alphaherpesvirus 1; in data set [9]; in the data set on Yellow fever virus) was greater than 100 µM each time. Besides, the CC50 in [5], in data set [6] and in data set [7] was greater than 100 µM throughout. In data set [8], the CC50 at 96 h is greater than 100 µM.
Take `Cc1ccc(-c2nnc3nnc4c5ccccc5[nH]c4n23)cc1`: the EC50 (in data set [1]; in the data set on Poliovirus 1; in data set [2]; in the data set with Coxsackievirus B2; with Vaccinia virus; in data set [3]) was greater than 100 µM throughout. In addition, the EC50 (in [4]; in the data set with Human alphaherpesvirus 1; in data set [9]; with Yellow fever virus) was greater than 100 µM in each case. In addition, the cytotoxic concentration (CC50) in data set [5] is no less than 100 µM; in data set [6], greater than 100 µM; in [7] it was greater than 100 µM. For the same compound, the half-maximal cytotoxic concentration (CC50) at 96 h in data set [8] was greater than 100 µM.
With `C[C@@]1(O)[C@H](O)[C@@H](CO)O[C@H]1n1cnc2c(=O)[nH]c(N)nc21` [2'-B-METHYL-GUANOSINE], the figures for the EC50 (in data set [3]; in the data set on Yellow fever virus) were 1.8 µM and 2.5 µM, respectively.
For `C#C[C@@]1(O)[C@H](O)[C@@H](CO)O[C@H]1n1ccc(N)nc1=O` [2'-ETHYNYL-D-CYTIDINE], the EC50 in the data set with Poliovirus 1 came to 18 µM; in the data set on Coxsackievirus B2, 23 µM.
For `COc1c(C)c2c(c(O)c1C/C=C(\C)CCC(=O)O)C(=O)OC2` [MYCOPHENOLIC ACID], in the data set on Vaccinia virus, the 50% effective concentration (EC50) was 1.8 µM.
`Cc1cn([C@H]2C[C@H](N=[N+]=[N-])[C@@H](CO)O2)c(=O)[nH]c1=O` [ZIDOVUDINE]: the EC50 in [4] was 0.01 µM.

For the origin of these results see ChEMBL document CHEMBL3046811, “Syntheses and in vitro biological screening of 1-aryl-10H-[1,2,4]triazolo[3,4:3,4][1,2,4]triazino[5,6-b]indoles” (Med Chem Res, 2013).
